In ChEMBL document CHEMBL3232964, “Quinone-carbohydrate nonglucoside conjugates as a new type of cytotoxic agents: synthesis and determination of in vitro activity” (Eur J Med Chem, 2014):
pIC50: −log10 of the molar value. Calls of active or inactive are those of the source. The calls are words filed in the database; no cut-off is given here.

Experiments:
HeLa [1] = assay: Cytotoxicity against human HeLa cells assessed as inhibition of number of colonies formed in soft agar after 14 days by microscopic analysis; type: functional
HeLa [2] = assay: Cytotoxicity against human HeLa cells assessed as cell viability after 48 hrs by MTS assay; type: functional, cell-based
[3] = target: Cellular tumor antigen p53 (Mus musculus) (UniProt P02340); assay: Inhibition of p53-dependent transcriptional activity in tumor promotion-sensitive mouse JB6 Cl41 cells after 12 hrs by luciferase-based method; type: cell-based
Cellular tumor antigen p53 (Mus musculus), sequence (P02340 whole entry): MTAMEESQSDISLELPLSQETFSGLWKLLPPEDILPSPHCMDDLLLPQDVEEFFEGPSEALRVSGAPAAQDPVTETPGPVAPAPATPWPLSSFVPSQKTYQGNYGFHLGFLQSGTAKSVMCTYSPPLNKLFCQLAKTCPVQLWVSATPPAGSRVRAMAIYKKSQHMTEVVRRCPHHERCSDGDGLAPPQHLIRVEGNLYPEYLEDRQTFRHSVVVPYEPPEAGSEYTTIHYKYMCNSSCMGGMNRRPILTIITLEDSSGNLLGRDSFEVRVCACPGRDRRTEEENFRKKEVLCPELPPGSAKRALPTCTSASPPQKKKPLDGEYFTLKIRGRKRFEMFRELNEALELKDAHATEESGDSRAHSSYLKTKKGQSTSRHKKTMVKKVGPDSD

HeLa [4] = assay: Ratio of IC50 to INCC50 for human HeLa cells; type: functional
HeLa [5] = assay: Cytotoxicity against human HeLa cells assessed as cell viability after 24 hrs by MTS assay; type: functional, cell-based
[6] = Cytotoxicity against tumor promotion-sensitive mouse JB6 Cl41 cells assessed as cell viability after 48 hrs by MTS assay; type: cell-based; settings: JB6 Cl41, 48 h
[7] = Cytotoxicity against tumor promotion-sensitive mouse JB6 Cl41 cells expressing luciferase reporter gene assessed as cell viability after 12 hrs by MTS assay; type: cell-based; settings: jb6 cl41, 12 h
HeLa [8] = assay: Induction of p53-independent apoptosis in human HeLa cells assessed as viable cells at 2.5 uM after 24 hrs by Annexin-V-FITC/propidium iodide double staining based flow cytometry (reference value: 88.52 +/- 11%); type: functional; settings: read-out: Activity
HeLa [9] = assay: Induction of p53-independent apoptosis in human HeLa cells assessed as late apoptotic/necrotic cells at 2.5 uM after 24 hrs by Annexin-V-FITC/propidium iodide double staining based flow cytometry (reference value: 0.88 +/- 0.72%); type: functional
HeLa [10] = assay: Induction of p53-independent apoptosis in human HeLa cells assessed as late apoptotic/necrotic cells at 5 uM after 24 hrs by Annexin-V-FITC/propidium iodide double staining based flow cytometry (reference value: 0.88 +/- 0.72%); type: functional
HeLa [11] = assay: Induction of p53-independent apoptosis in human HeLa cells assessed as viable cells at 5 uM after 24 hrs by Annexin-V-FITC/propidium iodide double staining based flow cytometry (reference value: 88.52 +/- 11%); type: functional; settings: read-out: Activity
[12] = Induction of apoptosis in tumor promotion-sensitive mouse JB6 Cl41 cells assessed as dead cells at 2.5 uM after 24 hrs by Annexin-V-FITC/propidium iodide staining based flow cytometry (reference value: 2.99 +/- 0.82%); type: cell-based; settings: jb6 cl41, 24 h
[13] = Induction of apoptosis in tumor promotion-sensitive mouse JB6 Cl41 cells assessed as late apoptotic/necrotic cells at 5 uM after 24 hrs by Annexin-V-FITC/propidium iodide staining based flow cytometry (reference value: 0.53 +/- 0.47%); type: cell-based; settings: jb6 cl41, 24 h
[14] = Induction of apoptosis in tumor promotion-sensitive mouse JB6 Cl41 cells assessed as late apoptotic/necrotic cells at 2.5 uM after 24 hrs by Annexin-V-FITC/propidium iodide staining based flow cytometry (reference value: 0.53 +/- 0.47%); type: cell-based; settings: jb6 cl41, 24 h
[15] = Induction of apoptosis in tumor promotion-sensitive mouse JB6 Cl41 cells assessed as early apoptotic cells at 2.5 uM after 24 hrs by Annexin-V-FITC/propidium iodide staining based flow cytometry (reference value: 2.15 +/- 1.18%); type: cell-based; settings: jb6 cl41, 24 h
HeLa [16] = assay: Induction of p53-independent apoptosis in human HeLa cells assessed as early apoptotic cells at 5 uM after 24 hrs by Annexin-V-FITC/propidium iodide double staining based flow cytometry (reference value: 6.71 +/- 4.41%); type: functional
HeLa [17] = assay: Induction of p53-independent apoptosis in human HeLa cells assessed as dead cells at 2.5 uM after 24 hrs by Annexin-V-FITC/propidium iodide double staining based flow cytometry (reference value: 3.89 +/- 0.3%); type: functional
[18] = Induction of apoptosis in tumor promotion-sensitive mouse JB6 Cl41 cells assessed as dead cells at 5 uM after 24 hrs by Annexin-V-FITC/propidium iodide staining based flow cytometry (reference value: 2.99 +/- 0.82%); type: cell-based; settings: jb6 cl41, 24 h
[19] = Induction of apoptosis in tumor promotion-sensitive mouse JB6 Cl41 cells assessed as viable cells at 2.5 uM after 24 hrs by Annexin-V-FITC/propidium iodide staining based flow cytometry (reference value: 94.33 +/- 0.87%); type: cell-based; settings: read-out: Activity
[20] = Induction of apoptosis in tumor promotion-sensitive mouse JB6 Cl41 cells assessed as viable cells at 5 uM after 24 hrs by Annexin-V-FITC/propidium iodide staining based flow cytometry (reference value: 94.33 +/- 0.87%); type: cell-based; settings: read-out: Activity
HeLa [21] = assay: Induction of p53-independent apoptosis in human HeLa cells assessed as dead cells at 5 uM after 24 hrs by Annexin-V-FITC/propidium iodide double staining based flow cytometry (reference value: 3.89 +/- 0.3%); type: functional
HeLa [22] = assay: Induction of p53-independent apoptosis in human HeLa cells assessed as early apoptotic cells at 2.5 uM after 24 hrs by Annexin-V-FITC/propidium iodide double staining based flow cytometry (reference value: 6.71 +/- 4.41%); type: functional
[23] = Induction of apoptosis in tumor promotion-sensitive mouse JB6 Cl41 cells assessed as early apoptotic cells at 5 uM after 24 hrs by Annexin-V-FITC/propidium iodide staining based flow cytometry (reference value: 2.15 +/- 1.18%); type: cell-based; settings: jb6 cl41, 24 h

Row | Structure (SMILES) | INCC50 (HeLa [1]) [µM] | pIC50 (HeLa [2]) | inhibition [3] | Ratio (HeLa [4]) | pIC50 (HeLa [5]) | pIC50 [6] | also measured
1 | O=C1C=C(O)c2c(O)cccc2C1=O | 109.37 | 3.73 | Active | 1.71 | 3.71 | < 3.70 | 
2 | COC1=CC(=O)c2c(O)cccc2C1=O | 0.59 | 5.89 | Active | 2.19 | 5.93 | 5.71 | 
3 | CO[C@H]1O[C@H](CO)[C@@H](O)[C@H](O)[C@H]1O | >200 | < 3.70 | inactive |  | < 3.70 | < 3.70 | Activity [7]: Non-toxic
4 | CO[C@H]1O[C@H](COC2=CC(=O)c3cccc(O)c3C2=O)[C@@H](O)[C@H](O)[C@H]1O | 1.47 | 5.55 | Active | 1.92 | 5.63 | 5.31 | viability at 2.5 µM (HeLa [8]): 54.8%; Activity (HeLa [9]): 9.27%; Activity (HeLa [10]): 32.74%; viability at 5 µM (HeLa [11]): 24.7%; Activity [12]: 2.63%; Activity [13]: 1.06%; Activity [14]: 1.28%; Activity [15]: 4.81%; Activity (HeLa [16]): 18.51%; Activity (HeLa [17]): 8.37%; Activity [18]: 3.07%; viability at 24 h, 2.5 µM [19]: 91.3%; viability at 24 h, 5 µM [20]: 21.2%; Activity (HeLa [21]): 24.08%; Activity (HeLa [22]): 27.57%; Activity [23]: 74.65%
5 | O=C1C=CC(=O)c2c(O)cccc21 [JUGLONE] | 39.04 | 4.18 | Active | 1.67 | 4.16 | 4.47 | 
6 | O=C1C=C(O)c2cccc(O)c2C1=O | 35.51 | 3.93 | Active | 3.33 | 3.91 | 3.71 | 
